Columns and labels:
OVCAR3 xenograft = test: OVCAR3 ovarian tumor model, Doxorubicin combination; format: in vivo, BABL/c nude mice; conditions: OVCAR3, 2.5 mg/kg i.p. once per week for 4 weeks, single agent
Procedure: OVCAR3 xenograft model was established by the inoculation of 200 µL of OVCAR3 tumor cell suspension (1×10^7 cells/mouse, with 50% Matrigel) subcutaneously into the right subaxillary of BABL/c nude mice. When tumors reached approximately 180.8 mm^3, tumor bearing animals were randomly distributed into treatment groups of 10 animals each. […] Tumor volumes were evaluated twice per week to calculate tumor volume over time, and the mice were weighed twice per week as a surrogate for signs of toxicity.

OPM-2 cells = test: CellTiter-Glo cell proliferation assay, OPM-2; format: cell-based; conditions: Homo sapiens; OPM-2, 50 nM, 72 hrs
Procedure: (§1) Cell proliferation was measured using the CellTiter-Glo® Luminescent Cell Viability Assay. The assay involved the addition of a single reagent (CellTiter-Glo® Reagent) directly to cells cultured in serum-supplemented medium. KMS-12-BM, OPM-2 and MOLP8 cells were cultured according to DSMZ recommendations and were seeded at 20,000 cells per well. Each compound evaluated was prepared as a DMSO stock solution (10 mM). Compounds were tested in triplicate on each plate, with a single concentration indicated in each table. Compound treatment (10.0 µL) was added to the cells from the 10x concentration of each compound. Plates were then incubated at 37° C., 5% CO2. After 72 hrs, cell plates were equilibrated at room temperature (rt) for approximately 30 mins. An equi-volume amount of CellTiter-Glo® Reagent (100 µL) was added to each well. Plates were mixed for 2 mins on an orbital shaker to induce cell lysis and then incubated at rt for 10 mins to stabilize the luminescent signal. Luminescence was recorded using a SpectraMAX, M5e plate reader according to CellTiter-Glo protocol.

MOLP-8 cells = test: CellTiter-Glo cell proliferation assay, MOLP-8; format: cell-based; conditions: Homo sapiens; MOLP-8, 2 nM, 72 hrs
Procedure: as §1

KMS-12-BM cells = test: CellTiter-Glo cell proliferation assay, KMS-12-BM; format: cell-based; conditions: Homo sapiens, 90 nM, 72 hrs
Procedure: as §1

x2-MDA-MB-468 tumor = test: x2 MDA-MB-468 TNBC tumor model, Niraparib combination; format: in vivo, mouse; conditions: x2-MDA-MB-468, 45 mg/kg orally, 7 days on, 7 days off for 4 cycles
Procedure: The x2-MDA-MB-468 cells (ATCC-Chempartner) were maintained in vitro as a monolayer culture in DMEM medium added with 10% FBS, 100 U/mL penicillin and 100 µg/mL streptomycin at 37° C. in an atmosphere of 5% CO2 in air. Each mouse was implanted subcutaneously on right flank with 1 × 10^7 x2-MDA-MD-468 cells in 0.2 mL mixture of RPMI1640 medium with BD Matrigel (base medium: Matrigel=100 uL:100 uL) for tumor development. […] Tumor volumes were evaluated twice per week to calculate tumor volume over time, and the mice were weighed twice per week as a surrogate for signs of toxicity.

TOV21G xenograft = TOV21G xenograft model; format: in vivo, BALB/c nude mice; conditions: 50 mg/kg i.p. once per week
Procedure: TOV21G xenograft model was established by the inoculation of 200 µL of TOV-21G tumor cell suspension (5×10^6 cells/mouse, with 50% Matrigel) subcutaneously into the right subaxillary of BALB/c nude mice. When tumors reached approximately 100 to 150 mm^3, tumor bearing animals were randomly distributed into treatment groups of 10 animals each. Animals were orally dosed with vehicle or Compound (1A) at 60 mg/kg for 19 days, carboplatin at 50 mg/kg by the i.p. injection once per week, and Compound (1A) treatment in combination with carboplatin. Tumor volumes were evaluated twice per week to calculate tumor volume over time, and the mice were weighed twice per week as a surrogate for signs of toxicity.

A427 cells = test: A427 cell growth study (DNA content, Hoechst 33258); format: cell-based; conditions: suboptimal doses, single agent, Day 6
Procedure: Experiment method: 3000 of A427 cells were seeded in 96-well pates and allowed to adhere overnight. Treatments with Compound (1A) and/or Triapine were added the next day. Cells were harvested at Day 6 and were assayed for DNA content using Hoechst 33258. Fluorescence intensity was read at excitation 346 nm and emission 460 nm using a plate reader. Data shown in FIG. 27 are representative of three independent experiments (raw fluorescence reading).

## COc1cccc2c1C(=O)c1c(O)c3c(c(O)c1C2=O)C[C@@](O)(C(=O)CO)C[C@@H]3O[C@H]1C[C@H](N)[C@H](O)[C@H](C)O1 [doxorubicin]
OVCAR3 xenograft
  TGI: 43.11%

## Nc1ccn([C@@H]2O[C@H](CO)[C@@H](O)C2(F)F)c(=O)n1 [Gemcitabine]
OPM-2 cells
  inhibition at 0.05 µM: 35.1%
MOLP-8 cells
  inhibition at 0.002 µM: 22%
KMS-12-BM cells
  inhibition at 0.09 µM: 38%

## NC(=O)c1cccc2cn(-c3ccc([C@@H]4CCCNC4)cc3)nc12 [niraparib]
x2-MDA-MB-468 tumor
  TGI: 47.7%

## N.N.O=C([O-])C1(C(=O)[O-])CCC1.[Pt+2] [carboplatin]
TOV21G xenograft
  TGI: 89.75%

## NC(=S)N/N=C/c1ncccc1N [Triapine]
A427 cells
  A427 cell growth: do not inhibit A427 cell growth

From US20230210854A1, “MONO- AND COMBINATION THERAPIES” (Recurium IP Holdings, LLC, priority 2020, published 2023)
